From US11466011B2, “Compounds and their use as inhibitors of N-myristoyl transferase” (Imperial College Innovations Limited, priority 2015, dated 2022)
Where a name gives a salt, the structure may show the parent alone.

What was measured:
HRV16 [1] = test: Rhinovirus production assay (e), virus titre (TCID50); format: cell-based, human HeLa Ohio cell line; conditions: Enterovirus
Description: Example 30 of the invention was tested for activity in an in vitro rhinovirus production assay using the human HeLa Ohio cell line. Compounds having activity in inhibiting rhinovirus production in the assay are expected to be useful as agents for preventing and/or treating asthma or chronic obstructive pulmonary disease (COPD), by virtue of being inhibitors of human NMT1 and/or NMT2, which are thought to myristoylate rhinovirus capsid subunit VP4 and be essential for virus assembly. Hela Ohio cells were grown in growth media (DMEM supplemented with 10% FBS, 1% Sodium Bicarbonate and 25 mM Hepes) and seeded 24 h prior to infection in a 12-well plate at a cell density allowing to obtain 100% confluent cells (5.95×10^5 cells per well) the next day. Confluent cells were treated with different concentrations of inhibitor, as indicated in the table below, each in triplicate. The Example 30 inhibitor solution was prepared by serial dilutions in growth media and the DMSO control contained the same percentage of DMSO as in the solution with the highest concentration of inhibitor. […] Cells were then infected with HRV16 at an MOI of 1 in the presence of the inhibitor. The virus stock (2.492×10^7 PFU/ml) was diluted in growth media to obtain a virus solution at 5.95×10^5 PFU/ml. This virus dilution was used to dilute the inhibitor as previously described in order to obtain virus solutions with the inhibitor concentrations indicated in the table below. The cell media was as replaced by 1 ml per well of virus+inhibitor solution and the plate was incubated for 1 h at room temperature to allow virus adsorption onto the cells. The cells were then washed with PBS and the media was replaced with 1 ml per well of growth media+inhibitor, prepared as previously described. […] The media and cells form each well were then transferred to 1.5 ml tubes and centrifuged for 1 min at 16000×g to remove cell debris. The virus titres from the cleared supernatants were determined by measuring the 50% Tissue Culture Infective Dose (TCID50). Each sample was diluted in a series of 10-fold dilutions in TCID50 media (DMEM supplemented with 2% FBS, 1% Sodium Bicarbonate, 25 mM Hepes and 1% Penicillin-Streptomycin) and 50 μl of each of the dilutions 1/10 to 1/10^−8 were added onto a 96-well plate, in 6 replicates. HeLa Ohio cells at a cell density of 1×10^5 cells/ml in TCID50 media were then added to each well (150 μl per well). Some wells with cells alone (without sample) were included as control. […] The appearance of characteristic cytopathic effect, compared to control cells, was then assessed by observation of the plates on an inverted microscope and the virus titres were subsequently calculated by the method of Reed and Muench.

HRV16 [2] = test: Rhinovirus production assay 2 (f), virus-induced cytopathic effect; format: cell-based, human HeLa Ohio cell line; conditions: 2 days post-infection, HeLa Ohio cells
Description: Examples 30, 35, 49 and 50 of the invention was tested for activity in a rhinovirus replication assay in the human HeLa Ohio cell line. Compounds having activity in inhibiting rhinovirus production in the assay are expected to be useful as agents for preventing and/or treating asthma or chronic obstructive pulmonary disease (COPD), by virtue of being inhibitors of human NMT1 and/or NMT2, which are thought to myristoylate rhinovirus capsid subunit VP4 and be essential for virus assembly. HeLa Ohio cells were grown in growth media (DMEM supplemented with 10% FBS, 1% Sodium Bicarbonate and 25 mM Hepes) and seeded 24 hours prior to infection in a 96-well plate at a cell density allowing to obtain 100% confluent cells (5.6×10^4 cells per well) the next day. Confluent cells were infected with HRV16 at an MOI of 0.05 in the presence of different concentrations of inhibitor, as indicated in the table below, each in duplicate. The virus stock (5.6×10^6 PFU/ml) was diluted in growth media to obtain a virus solution at 1.4×10^4 PFU/ml. This virus dilution was used to dilute the inhibitor by serial dilutions in order to obtain virus solutions with the inhibitor concentrations indicated in the table below. The DMSO control contained the same percentage of DMSO as in the solution with the highest concentration of inhibitor.

HeLa Ohio cells = test: Cell viability of inhibitor-treated uninfected cells (assay (f)); conditions: MTS 2 days post-treatment
HeLa and/or BL-41 cells = test: Metabolic activity assay (MTS assay) (d), HeLa and/or BL-41; format: cell-based; conditions: Homo sapiens, 72 h
Description: Example NMT inhibitors of the invention were tested for activity in an in vitro metabolic activity assay using human cell lines (HeLa and BL-41). Compounds having activity in inhibiting metabolic activity in the assay are expected to be useful as agents for preventing and/or treating cancer, by virtue of being inhibitors of human NMT1 and/or NMT2.
Hela cells were grown in DMEM media (supplemented with 10% FBS) and seeded in a 96-well plate 24 h prior to treatment. BL-41 cells were grown in RPMI-1640 media (supplemented with 10% FBS) and seeded directly before treatment. Cell suspensions were prepared by adjusting the cell density to the appropriate concentration (as stated in the table below) and 50 μL of the cell suspension was transferred to wells B-G in columns 2-11 of a 96-well plate.
100 μL of growth media containing 0.2% DMSO was added to wells B-G in columns 2 and 11 as positive controls and 100 μL of growth media containing Puromycin (3 μg/mL; final concentration in the plate 2 μg/mL) was added to wells B-G in column 3 as a negative control. 7 concentrations of inhibitor solution were prepared using example NMT inhibitors (same final percentage of DMSO, dilution factor=3 starting from 15 μM or 150 μM) and 100 μL of inhibitor solution was added to wells B-G in columns 4-10 (final concentration of example NMT inhibitor in the plate starting from 10 μM or 100 μM; total volume of the wells=150 μL).
After 72 h, 20 μL MTS reagent (Promega, prepared according to the supplier protocol) was added to each well of the 96-well plate. The plate was incubated at 37° C. (2 hours for HeLa cells and 4 hours for BL-41 cells) and absorbance was measured at 490 nm with a Spectra Max M2/M2e microplate reader. The average absorbance value of the negative control (Puromycin-treated cells) was subtracted from each value and the metabolic activity was calculated as a percentage relative to the positive control (DMSO-treated cells). EC50s were calculated using Grafit 7.0 (Erithacus Software Ltd, UK).

[3] = molecular target: Leishmania donovani (Ld) N-myristoyl transferase (Leishmania donovani, UniProt D0AB09); test: Fluorescence-based NMT assay (a), adapted version, LdNMT; format: biochemical
Leishmania donovani (Ld) N-myristoyl transferase, sequence (D0AB09 entry or part of it): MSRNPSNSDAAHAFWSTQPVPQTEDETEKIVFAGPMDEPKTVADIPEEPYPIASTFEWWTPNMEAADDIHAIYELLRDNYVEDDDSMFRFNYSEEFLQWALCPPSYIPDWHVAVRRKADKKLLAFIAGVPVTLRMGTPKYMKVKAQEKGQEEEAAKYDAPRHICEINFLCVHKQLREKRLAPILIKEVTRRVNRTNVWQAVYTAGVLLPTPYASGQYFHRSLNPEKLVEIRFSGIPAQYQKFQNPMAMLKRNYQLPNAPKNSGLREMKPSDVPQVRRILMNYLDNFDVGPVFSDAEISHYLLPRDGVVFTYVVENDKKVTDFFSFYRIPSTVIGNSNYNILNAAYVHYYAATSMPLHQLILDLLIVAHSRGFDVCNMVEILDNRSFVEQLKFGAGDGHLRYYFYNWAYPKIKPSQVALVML

[4] = molecular target: T1, Leishmania major (Lm) N-myristoyl transferase (Leishmania major, UniProt Q4Q5S8); test: Fluorescence-based NMT assay (a), adapted version, LmNMT; format: biochemical
T1 sequence (Q4Q5S8 1-421): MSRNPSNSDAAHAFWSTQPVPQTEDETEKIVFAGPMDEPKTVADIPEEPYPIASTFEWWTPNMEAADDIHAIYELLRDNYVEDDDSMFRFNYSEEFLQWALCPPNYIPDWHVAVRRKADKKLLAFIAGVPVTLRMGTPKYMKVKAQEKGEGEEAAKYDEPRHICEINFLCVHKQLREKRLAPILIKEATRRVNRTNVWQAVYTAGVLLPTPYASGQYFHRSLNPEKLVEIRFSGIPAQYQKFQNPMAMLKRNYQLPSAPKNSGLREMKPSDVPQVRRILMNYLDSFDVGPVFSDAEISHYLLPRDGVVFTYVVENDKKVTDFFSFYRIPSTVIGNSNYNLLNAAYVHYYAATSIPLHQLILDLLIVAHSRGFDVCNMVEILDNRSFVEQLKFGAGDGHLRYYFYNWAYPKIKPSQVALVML

| SMILES | EC50 (HRV16 [1]) [nM] | EC50 (HeLa and/or BL-41 cells) [nM] | melting point [°C] | HRV16 production (virus-induced cytopathic effect, MTS) (HRV16 [2]) | cell viability of inhibitor-treated but uninfected cells (HeLa Ohio cells) | IC50 [3] [nM] | IC50 [4] [nM] |
| --- | --- | --- | --- | --- | --- | --- | --- |
| Cc1nn(C)c(C)c1CCOc1c(-c2ccc3c(c2)c(CN(C)C)nn3C)ccc(F)c1F [Example 49] | 10 to 100 | 1 to 100 | – | inhibit HRV16 production in a dose-dependent manner | without affecting cell viability | – | – |
| Cc1nn(C)c(C)c1CCOc1cc(F)ccc1-c1ccc2[nH]nc(CN(C)C)c2c1 [Example 7] | – | – | – | – | – | 1 to 100 | – |
| CN(C)Cc1n[nH]c2ccc(-c3ccc(F)cc3OCCc3cccnc3)cc12 [Example 8] | – | – | – | – | – | 1 to 100 | 1 to 100 |

Continued, in another order:

| EC50 (HRV16 [1]) [nM] | EC50 (HeLa and/or BL-41 cells) [nM] | melting point [°C] | SMILES | HRV16 production (virus-induced cytopathic effect, MTS) (HRV16 [2]) | cell viability of inhibitor-treated but uninfected cells (HeLa Ohio cells) | IC50 [3] [nM] | IC50 [4] [nM] |
| --- | --- | --- | --- | --- | --- | --- | --- |
| 10 to 100 | – | – | CNCc1nn(C)c2ccc(-c3cccc(F)c3OCCc3c(C)nn(C)c3C)cc12 [Example 35, 1-(5-(3-fluoro-2-(2-(1,3,5-trimethyl-1H-pyrazol-4-yl)ethoxy)phenyl)-1-methyl-1H-indazol-3-yl)-N-methylmethanamine] | inhibit HRV16 production in a dose-dependent manner | without affecting cell viability | – | – |
| 10 to 100 | 1 to 100 | – | CNCc1nn(C)c2ccc(-c3ccc(F)c(F)c3OCCc3c(C)nn(C)c3C)cc12 [Example 50, 1-(5-(3,4-difluoro-2-(2-(1,3,5-trimethyl-1H-pyrazol-4-yl)ethoxy)phenyl)-1-methyl-1H-indazol-3-yl)-N-methylmethanamine] | inhibit HRV16 production in a dose-dependent manner | without affecting cell viability | – | – |
| 10 to 100 | 1 to 100 | – | Cc1nn(C)c(C)c1CCOc1c(F)cccc1-c1ccc2c(c1)c(CN(C)C)nn2C [Example 30] | inhibit HRV16 production in a dose-dependent manner | without affecting cell viability | – | – |
| – | – | 230 to 233 | Cc1nn(C)c(C)c1CCOc1cc(F)ccc1-c1ccc2c(c1)c(CN)nn2C (as salt: salt) [Example 31, (5-(4-fluoro-2-(2-(1,3,5-trimethyl-1H-pyrazol-4-yl)ethoxy)phenyl)-1-methyl-1H-indazol-3-yl)methanamine] | – | – | – | – |
